Measurements reported in ChEMBL document CHEMBL5465560, “Selectivity Literature for EUbOPEN Chemogenomic Library” (2024).
One block for each compound: values may come before it.

Key:
[1] = target: Serine/threonine-protein kinase pim-3 (Homo sapiens) (UniProt Q86V86); assay: Selectivity interaction (Kinase panel (DSF assay)) EUB0001489b PIM3
[2] = target: T1, Myotonin-protein kinase (Homo sapiens) (UniProt Q09013); assay: Selectivity interaction (KinomeScan (DiscoverX)) EUB0000655a DMPK; details: at 10 µM
T1 sequence (whole entry): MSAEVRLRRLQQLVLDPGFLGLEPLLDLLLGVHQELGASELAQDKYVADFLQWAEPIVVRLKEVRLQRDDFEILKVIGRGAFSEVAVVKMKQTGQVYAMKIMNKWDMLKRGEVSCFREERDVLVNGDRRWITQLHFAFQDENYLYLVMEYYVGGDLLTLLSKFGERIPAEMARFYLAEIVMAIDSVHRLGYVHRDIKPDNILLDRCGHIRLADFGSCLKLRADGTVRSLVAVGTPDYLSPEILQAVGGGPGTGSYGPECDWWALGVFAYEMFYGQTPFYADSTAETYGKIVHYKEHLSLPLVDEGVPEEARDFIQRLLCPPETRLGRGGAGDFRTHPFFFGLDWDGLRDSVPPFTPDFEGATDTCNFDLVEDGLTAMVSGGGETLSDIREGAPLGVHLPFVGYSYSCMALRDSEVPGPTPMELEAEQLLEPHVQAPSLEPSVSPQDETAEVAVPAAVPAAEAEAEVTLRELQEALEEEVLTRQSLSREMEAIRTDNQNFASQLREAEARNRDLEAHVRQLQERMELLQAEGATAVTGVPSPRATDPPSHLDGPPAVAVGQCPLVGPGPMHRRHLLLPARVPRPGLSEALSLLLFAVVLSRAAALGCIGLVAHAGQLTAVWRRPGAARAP

[3] = target: RAF proto-oncogene serine/threonine-protein kinase (Homo sapiens) (UniProt P04049); assay: Selectivity interaction (KinomeScan (DiscoverX)) EUB0001079a RAF1; details: at 1 µM
Chain of RAF proto-oncogene serine/threonine-protein kinase (Homo sapiens) (P04049 whole entry): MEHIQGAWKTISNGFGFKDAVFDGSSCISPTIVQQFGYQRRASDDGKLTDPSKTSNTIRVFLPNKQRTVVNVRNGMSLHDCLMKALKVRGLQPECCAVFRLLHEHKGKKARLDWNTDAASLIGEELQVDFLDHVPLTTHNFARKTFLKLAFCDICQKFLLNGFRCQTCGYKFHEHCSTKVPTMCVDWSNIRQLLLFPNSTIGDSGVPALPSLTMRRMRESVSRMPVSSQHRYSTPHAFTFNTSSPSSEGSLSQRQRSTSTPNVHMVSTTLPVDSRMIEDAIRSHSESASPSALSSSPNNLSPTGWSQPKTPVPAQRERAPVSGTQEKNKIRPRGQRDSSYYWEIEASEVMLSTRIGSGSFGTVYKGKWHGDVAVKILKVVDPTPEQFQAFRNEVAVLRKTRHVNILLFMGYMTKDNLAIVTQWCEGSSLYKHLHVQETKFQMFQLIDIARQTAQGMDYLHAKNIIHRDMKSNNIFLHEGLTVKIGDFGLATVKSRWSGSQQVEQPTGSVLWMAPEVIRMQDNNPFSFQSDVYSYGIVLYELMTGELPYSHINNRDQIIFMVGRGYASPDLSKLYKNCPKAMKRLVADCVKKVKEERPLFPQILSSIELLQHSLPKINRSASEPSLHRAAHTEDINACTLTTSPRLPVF

[4] = target: T2, Diacylglycerol kinase eta (Homo sapiens) (UniProt Q86XP1); assay: Selectivity interaction (ActivX KiNativ screen (kinase selectivity in THP-1 cell lysates)) EUB0000639a DGKH; type: subcellular; details: lysate
T2 sequence (whole entry): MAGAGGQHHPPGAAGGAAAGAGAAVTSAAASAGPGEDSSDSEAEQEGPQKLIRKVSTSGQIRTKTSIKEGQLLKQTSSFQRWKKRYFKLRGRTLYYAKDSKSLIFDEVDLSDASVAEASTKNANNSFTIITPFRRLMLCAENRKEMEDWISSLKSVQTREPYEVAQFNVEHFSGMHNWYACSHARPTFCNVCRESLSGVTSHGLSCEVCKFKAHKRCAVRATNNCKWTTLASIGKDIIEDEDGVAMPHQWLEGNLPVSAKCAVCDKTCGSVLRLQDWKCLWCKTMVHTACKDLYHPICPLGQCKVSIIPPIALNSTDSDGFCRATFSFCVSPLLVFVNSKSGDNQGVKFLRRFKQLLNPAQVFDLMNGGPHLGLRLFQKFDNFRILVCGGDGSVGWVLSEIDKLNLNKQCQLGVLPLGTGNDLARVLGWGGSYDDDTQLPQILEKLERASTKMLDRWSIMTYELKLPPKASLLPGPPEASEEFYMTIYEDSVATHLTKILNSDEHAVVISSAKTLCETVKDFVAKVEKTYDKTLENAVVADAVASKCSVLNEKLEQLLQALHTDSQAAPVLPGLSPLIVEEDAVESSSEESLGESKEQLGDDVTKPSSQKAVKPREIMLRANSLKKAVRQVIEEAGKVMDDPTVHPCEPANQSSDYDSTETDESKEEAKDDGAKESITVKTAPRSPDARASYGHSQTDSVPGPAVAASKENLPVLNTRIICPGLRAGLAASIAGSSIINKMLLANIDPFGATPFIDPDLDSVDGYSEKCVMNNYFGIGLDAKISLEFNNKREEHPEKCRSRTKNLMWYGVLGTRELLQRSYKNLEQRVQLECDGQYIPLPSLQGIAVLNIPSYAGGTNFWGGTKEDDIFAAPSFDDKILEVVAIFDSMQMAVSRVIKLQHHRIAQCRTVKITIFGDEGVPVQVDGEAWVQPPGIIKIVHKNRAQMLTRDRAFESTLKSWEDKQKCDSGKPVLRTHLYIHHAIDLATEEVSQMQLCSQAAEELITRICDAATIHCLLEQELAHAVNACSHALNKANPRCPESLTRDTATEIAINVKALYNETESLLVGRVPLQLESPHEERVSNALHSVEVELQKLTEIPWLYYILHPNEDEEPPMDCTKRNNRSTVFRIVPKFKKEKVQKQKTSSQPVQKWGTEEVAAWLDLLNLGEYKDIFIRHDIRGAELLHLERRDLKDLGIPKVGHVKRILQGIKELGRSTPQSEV

[5] = target: T3, Megakaryocyte-associated tyrosine-protein kinase (Homo sapiens) (UniProt P42679); assay: Selectivity interaction (KinomeScan (DiscoverX)) EUB0000666a MATK; details: at 10 µM
T3 sequence (whole entry): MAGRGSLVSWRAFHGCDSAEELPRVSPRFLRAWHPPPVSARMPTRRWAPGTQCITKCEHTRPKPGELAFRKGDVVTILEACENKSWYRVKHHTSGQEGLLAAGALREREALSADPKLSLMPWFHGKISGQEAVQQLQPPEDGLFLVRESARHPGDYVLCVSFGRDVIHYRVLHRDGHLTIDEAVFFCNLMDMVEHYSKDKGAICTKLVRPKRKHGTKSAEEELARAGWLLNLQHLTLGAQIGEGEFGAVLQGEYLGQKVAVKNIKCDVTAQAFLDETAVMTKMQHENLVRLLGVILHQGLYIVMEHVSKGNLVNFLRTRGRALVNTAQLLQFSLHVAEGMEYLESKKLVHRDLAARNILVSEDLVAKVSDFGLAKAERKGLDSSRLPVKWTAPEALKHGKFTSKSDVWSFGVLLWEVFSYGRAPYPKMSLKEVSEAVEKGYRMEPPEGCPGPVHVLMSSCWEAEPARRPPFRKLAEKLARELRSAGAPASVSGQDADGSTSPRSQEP

- dTM [1]: 2.1 K
SMILES: CN1CCN(C(=O)c2ccc3cc2OCCOCCNc2ccn4ncc-3c4n2)CC1

SMILES: CN(C)CCOc1ccc(-c2nc(-c3ccncc3)c(-c3ccc4c(c3)CC/C4=N\O)[nH]2)cc1
- % of control [2]: 100%

SMILES: Nc1cnc(N2CCc3cc(S(=O)(=O)Nc4c(F)cc(Cl)cc4F)cc(N4CCCC4=O)c32)nc1 [TP-020n]
- % of control [3]: 79%

- % of inhibition ([4]; at 0.01 µM): 12.2%
- % of inhibition ([4]; at 0.04 µM): 0%
- % of inhibition ([4]; at 0.2 µM): 20%
- % of inhibition ([4]; at 1 µM): 0.8%
- % of inhibition ([4]; at 5 µM): -3.6%
SMILES: CC[C@@H]1[C@H](F)C(=O)N[C@@H]1COc1nccc2cc(C(N)=O)c(OC)cc12 [ZIMLOVISERTIB]

SMILES: O=C(NOC[C@H](O)CO)c1ccc(F)c(F)c1Nc1ccc(I)cc1F
- % of control [5]: 100%
